{"source": "patent US7108832B2", "about": "“Sterialization methods and apparatus which employ additive-containing supercritical carbon dioxide sterilant” (NovaSterilis Inc., priority 2003, dated 2006)", "key": {"[1]": {"system": "B. stearothermophilus spores", "assay": "Comparative additives in supercritical CO2 sterilization (Example 7)", "assay_type": "cell-based", "conditions": "1.0 vol. %"}, "[2]": {"system": "B. stearothermophilus spores", "assay": "Inactivation of B. stearothermophilus spores, Dillow '864 method with and without additive (Example 1)", "assay_type": "cell-based", "conditions": "1500–3000 psi, 3 cycles, agitation random/directional +/−, 60 °C, 2 hrs, initial 2.3 × 10^6 CFU/ml", "excerpt": "The effects of using an additive in accordance with the present invention was compared using the method described by U.S. Pat. No. 6,149,864 to Dillow et al for inactivating B. stearothermophilus spores. […] In contrast, a greater than 6 log reduction was achieved using the method of the present invention (Ex. B). The additive was placed on a cotton ball and inserted in the chamber prior to closure. No further additive was used."}, "[3]": {"system": "B. subtilis spores", "conditions": "method of the Dillow et al '864 patent, other investigators (Spilimbergo et al 2002); cited from earlier work"}, "[4]": {"system": "B. stearothermophilus spores", "assay": "Linearity of inactivation, B. stearothermophilus spore bioindicators in TYVEK pouches (Example 8)", "assay_type": "cell-based", "conditions": "4.5% peracetic acid at 0.02 vol. % + water at 1 vol. %", "experimental": "Example 2B was repeated except that 4.5% peracetic acid was initially added to the vessel at 0.02 vol. % on a cotton ball and water was added on a separate cotton ball at 1 vol. %. B. stearothermophilus spores were inoculated onto glass fiber filters, allowed to dry and packaged into pouches formed of nonwoven fine polyethylene fibers (1073B TYVEK® brand material) and served as bioindicators. Total CFUs per filter were greater than 10^6. The bioindicators were exposed to differing times of treatment with 4 replicates per time point. The total remaining CFUs were then determined and a plot was generated of log reduction in CFUs over time (FIG. 3)."}, "[5]": {"system": "B. subtilis spore/vegetative preparations", "assay": "Sterilization of B. subtilis spore/vegetative preparations with additive-containing supercritical CO2, residual CFU count (Examples 3A-3D, 6A, 6B)", "assay_type": "cell-based", "conditions": "for kill of bioindicators: constant 2000 psi rather than cycling", "experimental": "A sample of B. subtilis spore/vegetative preparations (1 mL) of greater than 10^6 CFU/mL was placed in a 16 mm diameter test tube in a stainless steel basket. Acetic acid (6 mL) was transferred by syringe onto the surface of a cotton ball placed in the basket, which was then loaded into the 600 mL reactor vessel. The reactor vessel was heated to 50° C. and equilibrated with CO2 at atmospheric pressure. […] Agitation was carried out for 1 minute.\nAfter depressurizing the reactor vessel, more acetic acid (4 mL) was introduced at ambient pressure to the additive loop via port 18 (FIG. 1). The loop was sealed and pressurized to 3000 psi. The reactor vessel was the re-pressurized through the additive loop to 3000 psi such that acetic acid was transported into the reactor vessel.\n(§1) The pressurization/stirring/agitation/depressurization/additive addition process was repeated a total of three times. After the third cycle, a series of three flushing cycles to remove the additive was performed by pressurizing and de-pressurizing the reactor vessel using CO2. The stirring was stopped and the basket was removed from the reactor vessel. The residual CFUs were counted after serial dilution and culturing of both treated and untreated controls."}, "[6]": {"system": "B. stearothermophilus spores", "assay": "Sterilization of B. stearothermophilus spores with additive-containing supercritical CO2, residual CFU count (Example 2)", "assay_type": "cell-based", "conditions": "4 mL additive + 6 mL water, 50° C., 2000 to 1100 psi, 3 cycles; multiple evaluations", "experimental": "The apparatus generally depicted in FIGS. 1 and 2 was employed for this Example. A sample of B. stearothermophilus spores (1 mL) of greater than 10^6 CFU/mL was placed in 16 mm diameter test tubes in a stainless steel basket. Trifluoroacetic acid (4 mL) was transferred by syringe onto the surface of a cotton ball placed in the basket and water (6 mL) was placed at bottom of vessel. The basket was then loaded into the 600 mL reactor vessel. The reactor vessel was heated to 50° C. and equilibrated with CO2 at atmospheric pressure. The stirring and agitation mechanisms were activated and the reactor vessel pressurized to 2000 psi for 40 minutes. The CO2 pressure was then allowed to drop to 1100 psi at a rate of 300 psi/minute. Agitation by means of vibration of the vessel was carried out for 1 minute.\nas §1, with “The pressurization/stirring/agitation/depressurization process was” for “The pressurization/stirring/agitation/depressurization/additive addition process was”, “pressurizing and partial de-pressurizing the” for “pressurizing and de-pressurizing the”"}, "[7]": {"system": "bacterial spores", "assay": "Sterility assay of fresh or freeze-dried bone samples after treatment (Example 4)", "assay_type": "cell-based", "conditions": "4 mL additive, 50° C., 3000 to 1500 psi, 3 cycles of 40 minutes", "experimental": "Using the equipment and procedure in Example 1, samples of fresh or freeze-dried bone (1 cm×1 cm×0.5 cm) were placed into 16 mm test tubes in a stainless steel basket. Trifluoroacetic acid (4 mL) was transferred by syringe onto the surface of a cotton ball placed in basket, and the basket then loaded into the 600 mL reactor vessel. The reactor vessel was heated to 50° C. and equilibrated with CO2 at atmospheric pressure. The stirring and agitation mechanisms were activated and vessel pressurized to 3000 psi for 40 minutes. Agitation is carried out for 5 minutes. The CO2 pressure was then allowed to drop to 1500 psi at a rate of 300 psi/minute.\nThe pressurization/stirring/agitation/depressurization process was repeated a total of 3 times. After the third cycle, a series of three flushing cycles to remove the additive was performed by pressurizing and de-pressurizing the reactor vessel using CO2. The stirring was stopped and the basket was removed from the reactor vessel. Bone samples were assayed for sterility and compression strength with the results being that there was sterilization (i.e., >10^6 reduction in bacterial spores), and there was no reduction in compression strength attributes."}}, "note": "Values joined by “and” are separate entries in the source; they are usually repeats but may differ in a detail not shown here. Equal entries are not always repeated.", "data": [{"compound": "O=C(O)CC(O)(CC(=O)O)C(=O)O", "note": "[50% Citric acid, Citric acid]", "values": [{"measurement": "Log reduction", "setting": "[1]; 60 C, 2 hours, 3 cycles", "value": "0.03–0.62 log"}]}, {"compound": "OCl", "note": "[HOCl]", "values": [{"measurement": "Log reduction", "setting": "[1]; 60 C, 3 hours, 4 cycles", "value": "0–0.50 log"}]}, {"compound": "O", "note": "[Ex. A, Water]", "values": [{"measurement": "Final CFU/ml", "setting": "[2]", "value": "2.1 × 10^5 CFU/ml"}, {"measurement": "Log reduction", "setting": "[2]", "value": "1 log and 1.0 log"}]}, {"compound": "O=P(O)(O)O", "note": "[Phosphoric acid]", "values": [{"measurement": "Log reduction", "setting": "[1]; 50 C, 2 hours, 3 cycles", "value": "0.18–0.25 log"}]}, {"compound": "O=C=O", "note": "[supercritical carbon dioxide, carbon dioxide]", "values": [{"measurement": "log reduction in B. subtilis spores", "setting": "[3]", "value": 3.5, "unit": "log"}]}, {"compound": "CC(=O)OO", "note": "[peracetic acid]", "values": [{"measurement": "inactivation rates (log reduction in CFUs over time)", "setting": "[4]; bioindicators in TYVEK pouches", "value": "linear"}, {"measurement": "time for a single log reduction in the bioindicator", "setting": "[4]; spores on glass fiber filters in TYVEK pouches, >10^6 CFUs per filter, 4 replicates per time point", "value": 14.24, "unit": "minutes"}, {"measurement": "kill of bioindicators", "setting": "[5]; Example 6B: as 6A", "value": "Complete kill"}]}, {"compound": "CC(=O)O", "note": "[acetic acid]", "values": [{"measurement": "kill of the B. subtilis present", "setting": "[5]; Example 3B: as 3A, samples with less than 10^6 CFU/ml", "value": "total kill"}, {"measurement": "log reduction in CFUs extrapolated for greater than 10^6 CFU/ml", "setting": "[5]; Example 3B: extrapolated from total kill of samples with less than 10^6 CFU/ml", "value": 6, "unit": "log"}, {"measurement": "kill of bioindicators", "setting": "[5]; Example 3D: as 3A", "value": "Compete kill"}]}, {"compound": "O=CO", "note": "[Formic acid]", "values": [{"measurement": "Log reduction", "setting": "[1]; 50 C, 2 hours, 3 cycles", "value": 0, "unit": "log"}]}, {"compound": "O=C(O)C(F)(F)F", "note": "[Trifluoroacetic acid]", "values": [{"measurement": "kill of bioindicators", "setting": "[6]", "value": "Complete kill"}, {"measurement": "reduction in bacterial spores (sterility of bone samples)", "setting": "[7]", "value": "> 10^6"}]}, {"compound": "CCO", "note": "[Ethanol]", "values": [{"measurement": "Log reduction", "setting": "[1]; 60–50 C, 3 hours, 4 cycles", "value": "1.2–4.0 log"}]}, {"compound": "O=C(O)CCC(=O)O", "note": "[Succinic acid]", "values": [{"measurement": "Log reduction", "setting": "[1]; 50 C, 2 hours, 3 cycles", "value": "0.25–0.29 log"}]}, {"compound": "O=C(O)CC(=O)O", "note": "[Malonic acid]", "values": [{"measurement": "Log reduction", "setting": "[1]; 50 C, 2 hours, 3 cycles", "value": "0–0.12 log"}]}]}
